Source: patent US5536717A, “7-[4-(substituted amino)-2-butynl]benzo[B]pyrrolo[3,2,1-JK]-[1,4]benzodiazepin-6-ones” (Hoechst Marion Roussel Inc., priority 1993, dated 1996)

Columns and labels:
mice = assay: 2-phenyl-1,4-benzoquinone-induced writhing test in mice; assay type: in vivo; conditions: phenylquinone writhing
Description: The compounds of Formula I of the present invention are also useful as analgesic agents due to their ability to alleviate pain in mammals.

serotonergic system = assay: L-5-hydroxytryptophan potentiation in rats; assay type: in vivo; conditions: male Wistar rats, i.p.; for ED50: Rattus norvegicus, ip, forelimb clonus after pargyline + 5-HTP; for % Potentiation: @ 20 mg/kg, normalized relative to vehicle control
Protocol: According to the monoamine hypothesis of depression, compounds exert antidepressant activity because they are capable of enhancing central noradrenergic and/or serotonergic function (Shtee and […] 1971; Douglas 1975; Lingjaerde 1973). This procedure is used to evaluate enhanced activity of the serotonergic system. Groups of six male Wistar rats (150-200 g) are used in this test procedure. […] Thirty minutes before the 5-HTP administration, drugs are prepared and dosed using distilled water and, if insoluble, a suitable surfactant is added. Control groups receive vehicle. Drugs are routinely administered i.p. at a dosage volume of 10 ml/kg. L-5-hydroxytrpytophan (Calbiochem-Behring Corp.) is prepared at 1.0 mg/kg in distilled water and is administered i.p. in volumes proportional to 10 ml/kg. Fifteen minutes post-5-HTP treatment, each animal is observed for 10 seconds. Animal observations and 5-HTP administration are done in the presence of "white noise". In a dose range, drugs are administered in a randomized manner. […] Potentiation is expressed as normalized percent potentiation relative to vehicle control. […] An ED50 and 95% confidence limit are determined by Litchfield and Wilcoxon.

Question: `CN1CCN(CC#CCN2C(=O)c3cccc4c3N(CC4)c3ccccc32)CC1.O=C(O)/C=C/C(=O)O` [1,2-Dihydro-7-[4-(4-methyl-1-piperazinyl)-2-butynyl]benzo[b]pyrrolo[3,2,1-jk][1,4]benzodiazepin-6-one fumarate] was tested. Which “Inhibition at 20 mg/kg, s.c.” value (mice) did it give?
Answer: 44%

Question: For `CC1CCN(CC#CCN2C(=O)c3cccc4c3N(CC4)c3ccccc32)CC1` [1,2-Dihydro-7-[4-(4-methyl-1-piperidinyl)-2-butynyl]benzo[b]pyrrolo[3,2,1-jk][1,4]benzodiazepin-6-one hemifumarate], which ED50 (serotonergic system) is on record?
Answer: 25.3 mg/kg

Question: With `CN1CCN(CC#CCN2C(=O)c3cccc4c3N(CC4)c3ccc(Br)cc32)CC1.O=C(O)/C=C/C(=O)O` [9-Bromo-1,2-dihydro-7-[4-(4-methyl-1-piperazinyl)-2-butynyl]benzo[b]pyrrolo[3,2,1-jk][1,4]benzodiazepin-6-one fumarate] as the compound, how does the “% Potentiation” value (serotonergic system) read?
Answer: 50%

Question: For `CC1CCN(CC#CCN2C(=O)c3cccc4c3N(CC4)c3ccc(Br)cc32)CC1` [9-Bromo-1,2-dihydro-7-[4-(4-methyl-1-piperidinyl)-2-butynyl]benzo[b]pyrrolo[3,2,1-jk][1,4]benzodiazepin-6-one hemifumarate], which “Inhibition at 20 mg/kg, s.c.” value (mice) is on record?
Answer: 41%

Question: With `COc1ccccc1N1CCN(CC#CCN2C(=O)c3cccc4c3N(CC4)c3ccc(Br)cc32)CC1` [9-Bromo-1,2-dihydro-7-[4-[4-(2-methoxyphenyl)-1-piperazinyl]-2-butynyl]-2-butynyl]benzo[b]pyrrolo[3,2,1-jk][1,4]benzodiazepin-6-one] as the compound, how does the “% Potentiation” value (serotonergic system) read?
Answer: 50%

Question: For `O=C1c2cccc3c2N(CC3)c2ccc(Br)cc2N1CC#CCN1CCC(n2c(=O)[nH]c3ccccc32)CC1` [9-Bromo-1,2-dihydro-7-[4-[4-(2-oxo-1H-benzimidazol-3-yl)-1-piperidinyl-2-butynyl]benzo[b]pyrrolo[3,2,1-jk][1,4]benzodiazepin-6-one monohydrate], which “Inhibition at 20 mg/kg, s.c.” value (mice) is on record?
Answer: 42%

Question: How did the ED50 (serotonergic system) turn out when `CN(C)CCC=C1c2ccccc2CCc2ccccc21` [Amitriptyline, reference compound] was run?
Answer: 7.1 mg/kg

Question: How did the ED50 (mice; Mus musculus, sc, read-out: ED50 (writhing inhibition)) turn out when `CCC(=O)O[C@](Cc1ccccc1)(c1ccccc1)[C@H](C)CN(C)C` [Propoxyphene, reference compound] was run?
Answer: 3.9 mg/kg
